Experimental data from paper PMC7531004, “Discovery of gramicidin A analogues with altered activities by multidimensional screening of a one-bead-one-compound library” (Nature Communications, 2020).
Where a SMILES comes first, the peptide text is derived from it. [ ]: non-standard residue; d: D form. The star is where a group is joined. NHCH2CH2OH = OCCN*; For = O=C*

Assays:
[1] = test system: P388 mouse leukemia cells; conditions: 92 h
Summary of the method: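 Peptide stocks diluted 250× in growth medium; P388 cells 1 × 10^4 cells/mL final; 37 °C, 5% CO2, 92 h. WST-1 + 1-methoxy PMS, 4 h, A415. Output: % viability.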

[2] = test system: Streptococcus pyogenes SSI-9; test: Antibacterial activity assay of bead-derived peptides (three concentrations); format: cell-based; set-up: key: +++: inhibition by the 640-fold diluted peptide solution; ++: inhibition by the 160-fold diluted solution; +: inhibition by the 40-fold diluted solution; -: no inhibition; conditions: S. pyogenes, bead-derived peptide solution, three concentrations
Summary of the method: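 Growth inhibition scored visually as precipitated bacteria after 37 °C, 18 h incubation. Streptococcus pyogenes SSI-9 inoculum of 2 × 10^5 CFU in Ca2+/Mg2+-adjusted Mueller Hinton broth plus 5% laked horse blood; peptides tested at three levels: stock, 4-fold and 16-fold DMSO dilutions.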

[3] = H+/Na+ transport assay of bead-derived peptides (one-point); format: biochemical; set-up: key: relative activity; mean of two control wells = 1.00; conditions: bead-derived peptide solution, EYPC/EYPG LUVs;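 also: relative to parent gramicidin A activity set to 1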
Summary of the method: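 H+/Na+ transport is monitored through pyranine fluorescence in freshly extruded LUVs after a 30-min room-temperature vortex with each library peptide at a single concentration. Signals are normalized to detergent (Triton X-100) and untreated controls.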

Compound	cell viability/% [1]	antibacterial activity [2]	H+/Na+ transport activity normalized against the value of 1 (1.00) [3]
CNC(=O)C[C@@H](NC(=O)[C@@H](NC(=O)[C@H](NC(=O)[C@H](C)NC(=O)[C@@H](CC(C)C)NC(=O)[C@H](C)NC(=O)CNC(=O)[C@@H](NC=O)C(C)C)C(C)C)C(C)C)C(=O)N[C@@H](Cc1c[nH]c2ccccc12)C(=O)N[C@H](CC(C)C)C(=O)N[C@@H](Cc1c[nH]c2ccccc12)C(=O)N[C@@H](C(=O)N[C@@H](Cc1c[nH]c2ccccc12)C(=O)N[C@H](CC(C)C)C(=O)N[C@@H](Cc1c[nH]c2ccccc12)C(=O)NCCO)C(C)C [compound 10669] (For-VGA[dL]A[dV]V[dD](NHMe)W[dL]W[dV]W[dL]W-NHCH2CH2OH)	55.2%	-	1.11
CC(C)C[C@@H](NC(=O)[C@H](Cc1c[nH]c2ccccc12)NC(=O)[C@H](NC(=O)[C@H](Cc1c[nH]c2ccccc12)NC(=O)[C@H](NC(=O)[C@H](Cc1c[nH]c2ccccc12)NC(=O)[C@H](NC(=O)[C@@H](NC(=O)[C@H](NC(=O)[C@H](C)NC(=O)[C@H](NC(=O)[C@H](C)NC(=O)CNC(=O)[C@@H](NC=O)C(C)C)C(C)C)[C@H](C)O)C(C)C)C(C)C)C(C)C)C(C)C)C(=O)N[C@@H](Cc1c[nH]c2ccccc12)C(=O)NCCO [compound 9058] (For-VGA[dV]A[dT]V[dV]W[dV]W[dV]W[dL]W-NHCH2CH2OH)	58.0%	-	1.14
CC(C)C[C@@H](NC(=O)[C@H](C)NC(=O)CNC(=O)[C@@H](NC=O)C(C)C)C(=O)N[C@@H](C)C(=O)N[C@H](CC(C)C)C(=O)N[C@H](C(=O)N[C@H](CC(C)C)C(=O)N[C@@H](Cc1c[nH]c2ccccc12)C(=O)N[C@@H](C(=O)N[C@@H](Cc1c[nH]c2ccccc12)C(=O)N[C@H](CC(C)C)C(=O)N[C@@H](Cc1c[nH]c2ccccc12)C(=O)N[C@H](CC(C)C)C(=O)N[C@@H](Cc1c[nH]c2ccccc12)C(=O)NCCO)[C@H](C)O)C(C)C [compound 11408] (For-VGA[dL]A[dL]V[dL]W[dT]W[dL]W[dL]W-NHCH2CH2OH)	57.5%	-	1.30
CC(C)C[C@@H](NC(=O)[C@H](C)NC(=O)CNC(=O)[C@@H](NC=O)C(C)C)C(=O)N[C@@H](C)C(=O)N[C@H](CC(C)C)C(=O)N[C@H](C(=O)N[C@@H](C(=O)N[C@@H](Cc1c[nH]c2ccccc12)C(=O)N[C@H](CC(C)C)C(=O)N[C@@H](Cc1c[nH]c2ccccc12)C(=O)N[C@@H](C(=O)N[C@@H](Cc1c[nH]c2ccccc12)C(=O)N[C@@H](C(=O)N[C@@H](Cc1c[nH]c2ccccc12)C(=O)NCCO)C(C)C)C(C)C)C(C)C)C(C)C [compound 9607] (For-VGA[dL]A[dL]V[dV]W[dL]W[dV]W[dV]W-NHCH2CH2OH)	48.6%	+	1.03
CNC(=O)C[C@@H](NC(=O)[C@@H](NC(=O)[C@@H](CC(C)C)NC(=O)[C@H](C)NC(=O)[C@H](NC(=O)[C@H](C)NC(=O)CNC(=O)[C@@H](NC=O)C(C)C)C(C)C)C(C)C)C(=O)N[C@@H](Cc1c[nH]c2ccccc12)C(=O)N[C@H](CC(C)C)C(=O)N[C@@H](Cc1c[nH]c2ccccc12)C(=O)N[C@@H](C(=O)N[C@@H](Cc1c[nH]c2ccccc12)C(=O)N[C@@H](C(=O)N[C@@H](Cc1c[nH]c2ccccc12)C(=O)NCCO)C(C)C)C(C)C [compound 12707] (For-VGA[dV]A[dL]V[dD](NHMe)W[dL]W[dV]W[dV]W-NHCH2CH2OH)	100.0%	-	1.06
CC(C)C[C@@H](NC(=O)[C@H](C)NC(=O)CNC(=O)[C@@H](NC=O)C(C)C)C(=O)N[C@@H](C)C(=O)N[C@H](CC(C)C)C(=O)N[C@H](C(=O)N[C@@H](C(=O)N[C@@H](Cc1c[nH]c2ccccc12)C(=O)N[C@@H](C(=O)N[C@@H](Cc1c[nH]c2ccccc12)C(=O)N[C@@H](C(=O)N[C@@H](Cc1c[nH]c2ccccc12)C(=O)N[C@@H](C(=O)N[C@@H](Cc1c[nH]c2ccccc12)C(=O)NCCO)C(C)C)C(C)C)C(C)C)C(C)C)C(C)C [compound 7100] (For-VGA[dL]A[dL]V[dV]W[dV]W[dV]W[dV]W-NHCH2CH2OH)	100.0%	-	1.07
CC(C)C[C@@H](NC(=O)[C@H](Cc1c[nH]c2ccccc12)NC(=O)[C@@H](CC(C)C)NC(=O)[C@@H](NC(=O)[C@H](NC(=O)[C@H](C)NC(=O)[C@H](NC(=O)[C@H](C)NC(=O)CNC(=O)[C@@H](NC=O)C(C)C)C(C)C)C(C)C)C(C)C)C(=O)N[C@@H](Cc1c[nH]c2ccccc12)C(=O)N[C@@H](C(=O)N[C@@H](Cc1c[nH]c2ccccc12)C(=O)N[C@@H](C(=O)N[C@@H](Cc1c[nH]c2ccccc12)C(=O)NCCO)C(C)C)[C@H](C)O [compound 5311] (For-VGA[dV]A[dV]V[dL]W[dL]W[dT]W[dV]W-NHCH2CH2OH)	100.0%	+	1.15
CNC(=O)C[C@@H](NC(=O)[C@H](C)NC(=O)[C@@H](CC(C)C)NC(=O)[C@H](C)NC(=O)CNC(=O)[C@@H](NC=O)C(C)C)C(=O)N[C@H](C(=O)N[C@@H](C(=O)N[C@@H](Cc1c[nH]c2ccccc12)C(=O)N[C@H](CC(C)C)C(=O)N[C@@H](Cc1c[nH]c2ccccc12)C(=O)N[C@@H](C(=O)N[C@@H](Cc1c[nH]c2ccccc12)C(=O)N[C@H](CC(C)C)C(=O)N[C@@H](Cc1c[nH]c2ccccc12)C(=O)NCCO)C(C)C)C(C)C)C(C)C [compound 8265] (For-VGA[dL]A[dD](NHMe)V[dV]W[dL]W[dV]W[dL]W-NHCH2CH2OH)	68.3%	-	1.12
CC(C)C[C@@H](NC(=O)[C@H](C)NC(=O)CNC(=O)[C@@H](NC=O)C(C)C)C(=O)N[C@@H](C)C(=O)N[C@@H](C(=O)N[C@H](C(=O)N[C@@H](C(=O)N[C@@H](Cc1c[nH]c2ccccc12)C(=O)N[C@@H](C(=O)N[C@@H](Cc1c[nH]c2ccccc12)C(=O)N[C@H](CC(C)C)C(=O)N[C@@H](Cc1c[nH]c2ccccc12)C(=O)N[C@@H](C(=O)N[C@@H](Cc1c[nH]c2ccccc12)C(=O)NCCO)C(C)C)C(C)C)C(C)C)C(C)C)[C@H](C)O [compound 9030] (For-VGA[dL]A[dT]V[dV]W[dV]W[dL]W[dV]W-NHCH2CH2OH)	71.3%	-	1.12
CC(C)C[C@@H](NC(=O)[C@H](Cc1c[nH]c2ccccc12)NC(=O)[C@H](NC(=O)[C@H](Cc1c[nH]c2ccccc12)NC(=O)[C@H](NC(=O)[C@@H](NC(=O)[C@H](NC(=O)[C@H](C)NC(=O)[C@H](NC(=O)[C@H](C)NC(=O)CNC(=O)[C@@H](NC=O)C(C)C)[C@H](C)O)C(C)C)C(C)C)C(C)C)C(C)C)C(=O)N[C@@H](Cc1c[nH]c2ccccc12)C(=O)N[C@@H](C(=O)N[C@@H](Cc1c[nH]c2ccccc12)C(=O)NCCO)C(C)C [compound 6820] (For-VGA[dT]A[dV]V[dV]W[dV]W[dL]W[dV]W-NHCH2CH2OH)	100.0%	-	1.20
CC(C)C[C@@H](NC(=O)[C@H](Cc1c[nH]c2ccccc12)NC(=O)[C@@H](CC(C)C)NC(=O)[C@H](Cc1c[nH]c2ccccc12)NC(=O)[C@@H](CC(C)C)NC(=O)[C@H](Cc1c[nH]c2ccccc12)NC(=O)[C@@H](CC(C)C)NC(=O)[C@@H](NC(=O)[C@H](NC(=O)[C@H](C)NC(=O)[C@H](NC(=O)[C@H](C)NC(=O)CNC(=O)[C@@H](NC=O)C(C)C)C(C)C)C(C)C)C(C)C)C(=O)N[C@@H](Cc1c[nH]c2ccccc12)C(=O)NCCO [compound 7864] (For-VGA[dV]A[dV]V[dL]W[dL]W[dL]W[dL]W-NHCH2CH2OH)	10.8%	+	1.01
CNC(=O)C[C@@H](NC(=O)[C@H](Cc1c[nH]c2ccccc12)NC(=O)[C@H](NC(=O)[C@H](Cc1c[nH]c2ccccc12)NC(=O)[C@H](NC(=O)[C@H](Cc1c[nH]c2ccccc12)NC(=O)[C@@H](CC(C)C)NC(=O)[C@@H](NC(=O)[C@H](NC(=O)[C@H](C)NC(=O)[C@H](NC(=O)[C@H](C)NC(=O)CNC(=O)[C@@H](NC=O)C(C)C)C(C)C)C(C)C)C(C)C)C(C)C)C(C)C)C(=O)N[C@@H](Cc1c[nH]c2ccccc12)C(=O)NCCO [compound 12691] (For-VGA[dV]A[dV]V[dL]W[dV]W[dV]W[dD](NHMe)W-NHCH2CH2OH)	100.0%	-	1.11
CC(C)C[C@@H](NC(=O)[C@H](C)NC(=O)[C@H](NC(=O)[C@H](C)NC(=O)CNC(=O)[C@@H](NC=O)C(C)C)C(C)C)C(=O)N[C@H](C(=O)N[C@@H](C(=O)N[C@@H](Cc1c[nH]c2ccccc12)C(=O)N[C@@H](C(=O)N[C@@H](Cc1c[nH]c2ccccc12)C(=O)N[C@H](CC(C)C)C(=O)N[C@@H](Cc1c[nH]c2ccccc12)C(=O)N[C@@H](C(=O)N[C@@H](Cc1c[nH]c2ccccc12)C(=O)NCCO)C(C)C)C(C)C)[C@H](C)O)C(C)C [compound 4710] (For-VGA[dV]A[dL]V[dT]W[dV]W[dL]W[dV]W-NHCH2CH2OH)	100.0%	-	1.06
